Measured values published in patent US20100168093A1, “SUBSTITUTED 3-AMINO-4 -HYDROXY PYRROLIDINES COMPOUNDS, THEIR PREPARATION AND USE AS MEDICAMENTS” (priority 2006, published 2010).
Counter-ions that a name gives are not always drawn.

target: T1, Sigma-1 receptor (Cavia porcellus, UniProt Q60492); experiment: Sigma-1 receptor binding assay, [3H](+)-pentazocine displacement in brain membranes; conditions: 2.5 h, compound at 10^−7 M; [3H](+)-pentazocine 0.5 nM; guinea pig brain membranes; non-specific binding defined by 1 μM haloperidol; read-out: Percent Replacement Sigma-1 receptor [10^−7 M]
T1 construct: guinea pig brains were homogenized; from tissue; host or cells: guinea pig brain membranes
Description: Some representative compounds of the invention were tested for their activity as sigma (sigma-1) inhibitors. The following protocol was followed:
Brain membrane preparation and binding assays for the σ1-receptor were performed as described (DeHaven-Hudkins et al., 1992, Eur. J. Pharmacol. 227, 371-378.) with some modifications. In brief, guinea pig brains were homogenized in 10 vols. (w/v) of Tris-HCl 50 mM 0.32 M sucrose, pH 7.4, with a Kinematica Polytron PT 3000 at 15000 r.p.m. for 30 s. The homogenate was centrifuged at 1000g for 10 min at 4° C. and the supematants collected and centrifuged again at 48000 g for 15 min at 4° C. The pellet was resuspended in 10 volumes of Tris-HCl buffer (50 mM, pH 7.4), incubated at 37° C. for 30 min, and centrifuged at 48000 g for 20 min at 4° C. Following this, the pellet was resuspended in fresh Tris-HCl buffer (50 mM, pH 7.4) and stored on ice until use.
Each assay tube contained 10 μL of [^3H](+)-pentazocine (final concentration of 0.5 nM), 900 μL of the tissue suspension to a final assay volume of 1 mL and a final tissue concentration of approximately 30 mg tissue net weight/mL. Non-specific binding was defined by addition of a final concentration of 1 μM haloperidol. All tubes were incubated at 37° C. for 150 min before termination of the reaction by rapid filtration over Schleicher & Schuell GF 3362 glass fibre filters [previously soaked in a solution of 0.5% polyethylenimine for at least 1 h]. Filters were then washed with four times with 4 mL of cold Tris-HCl buffer (50 mM, pH 7.4). Following addition of scintillation cocktail, the samples were allowed to equilibrate overnight. The amount of bound radioactivity was determined by liquid scintillation spectrometry using a Wallac Winspectral 1414 liquid scintillation counter. Protein concentrations were determined by the method of Lowry et al. (1951; J. Biol. Chem, 193, 265.).

T1 sequence (Q60492 whole entry): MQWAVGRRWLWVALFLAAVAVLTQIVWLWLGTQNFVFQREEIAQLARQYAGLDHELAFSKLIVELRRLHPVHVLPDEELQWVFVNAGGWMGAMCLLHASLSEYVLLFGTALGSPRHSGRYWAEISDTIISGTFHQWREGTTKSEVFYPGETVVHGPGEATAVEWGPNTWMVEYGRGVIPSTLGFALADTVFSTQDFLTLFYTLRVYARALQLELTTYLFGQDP

| SMILES | inhibition at 0.1 µM [%] |
| --- | --- |
| O[C@@H]1CN(Cc2ccccc2)C[C@H]1N1CCN(Cc2ccccc2)CC1 [Example 17, (3,4-trans)-1-benzyl-4-(4-benzylpiperazin-1-yl)pyrrolidine-3-ol] | 82.1 |
| O[C@@H]1CN(Cc2ccccc2)C[C@H]1N1CCN(c2ccccc2)CC1 [Example 18, (3,4-trans)-1-benzyl-4-(4-phenylpiperazin-1-yl)pyrrolidine-3-ol] | 90.9 |
| Cc1ccc(F)cc1S(=O)(=O)N1CCN([C@@H]2CN(Cc3ccccc3)C[C@H]2O)CC1 [Example 70, (3,4-trans)-1-benzyl-4-(4-(5-fluoro-2-methylphenylsulfonyl)piperazin-1-yl)pyrrolidin-3-ol dihydrochioride] | 81.4 |
| O[C@@H]1CN(Cc2ccccc2)C[C@H]1N1CCN(Cc2c(F)cccc2Cl)CC1 [Example 78, (3,4-trans)-1-benzyl-4-(4-(2-chloro-6-fluorobenzyl)piperazin-1-yl)pyrrolidine-3-ol] | 81.9 |
| O[C@@H]1CN(Cc2ccccc2)C[C@H]1N1CCN(Cc2ccc(Cl)c(Cl)c2)CC1 [Example 79, (3,4-trans)-1-benzyl-4-(4-(3,4-dichlorobenzyl)piperazin-1-yl)pyrrolidine-3-ol] | 88.4 |
| O[C@@H]1CN(Cc2ccccc2)C[C@H]1N1CCN(c2ccc(F)cc2)CC1 [Example 83, (3,4-trans)-1-benzyl-4-(4-(4-fluorophenyl)piperazin-1-yl)pyrrolidin-3-ol] | 69.7 |
| O[C@@H]1CN(Cc2ccccc2)C[C@H]1N1CCN(c2ccccc2Cl)CC1 [Example 85] | 107 |
| O[C@H]1CN(Cc2ccccc2)C[C@@H]1N1CCN(c2ccccc2Cl)CC1 [Example 86, (3S,4S)-1-benzyl-4-(4-(2-chlorophenyl)piperazin-1-yl)pyrrolidin-3-ol] | 86.2 |
| O[C@@H]1CN(Cc2ccccc2)C[C@H]1N1CCN(c2ccc(Cl)c(Cl)c2)CC1 [Example 88, (3,4-trans)-1-benzyl-4-(4-(3,4-dichlorophenyl)piperazin-1-yl)pyrrolidin-3-ol] | 93.1 |

The remaining lines, values ahead:

| inhibition at 0.1 µM [%] | SMILES |
| --- | --- |
| 16.8 | Cc1ccc(S(=O)(=O)N2CCN([C@@H]3CN(Cc4ccccc4)C[C@H]3O)CC2)cc1 [Example 57, (3,4-trans)-1-benzyl-4-(4-tosylpiperazin-1-yl)pyrrolidin-3-ol dihydrochloride] |
| 40.8 | CC(=O)O[C@@H]1CN(Cc2ccccc2)C[C@H]1N1CCN(S(=O)(=O)c2cccc3ccccc23)CC1 [Example 60, (3,4-trans)-1-benzyl-4-(4-(naphthalen-1-ylsulfonyl)piperazin-1-yl)pyrrolidin-3-yl acetate dihydrochloride] |
| 30.1 | O=S(=O)(c1cccc2ccccc12)N1CCN([C@@H]2CN(Cc3ccccc3)C[C@H]2O)CC1 [Example 61, (3,4-trans)-1-benzyl-4-(4-(naphthalen-1-ylsulfonyl)piperazin-1-yl)pyrrolidin-3-ol dihydrochloride] |
| 86.7 | O=S(=O)(c1ccccc1Br)N1CCN([C@@H]2CN(Cc3ccccc3)C[C@H]2O)CC1 [Example 67, (3,4-trans)-1-benzyl-4-(4-(2-bromophenylsulfonyl)piperazin-1-yl)pyrrolidin-3-ol dihydrochloride] |
| 84 | O=S(=O)(c1ccccc1)N1CCN([C@@H]2CN(Cc3ccccc3)C[C@H]2O)CC1 [Example 73, (3,4-trans)-1-benzyl-4-(4-(phenylsulfonyl)piperazin-1-yl)pyrrolidin-3-ol] |
| 95.5 | CC(=O)O[C@@H]1CN(Cc2ccccc2)C[C@H]1N1CCN(S(=O)(=O)c2ccccc2F)CC1 [Example 75, (3,4-trans)-1-benzyl-4-(4-(2-fluorophenylsulfonyl)piperazin-1-yl)pyrrolidin-3-yl acetate dihydrochloride] |
| 85 | O=S(=O)(c1ccccc1F)N1CCN([C@@H]2CN(Cc3ccccc3)C[C@H]2O)CC1 [Example 76, (3,4-trans)-1-benzyl-4-(4-(2-fluorophenylsulfonyl)piperazin-1-yl)pyrrolidin-3-ol dihydrochloride] |
| 46.1 | O=S(=O)(c1ccccc1F)N1CCN([C@H]2CN(Cc3ccccc3)C[C@@H]2O)CC1 [Example 77, (3S,4S)-1-benzyl-4-(4-(2-fluorophenylsulfonyl)piperazin-1-yl)pyrrolidin-3-ol dihydrochloride] |

same assay, conditions: compound at 10^−7 M; [3H](+)-pentazocine 0.5 nM; guinea pig brain membranes; non-specific binding defined by 1 μM haloperidol

| Percent Replacement Sigma-1 receptor [10^−7 M] [%] | SMILES |
| --- | --- |
| 94.6 | O[C@@H]1CN(Cc2ccccc2)C[C@H]1N1CCN(c2ccccc2Cl)CC1 [Example 84, (3,4-trans)-1-benzyl-4-(4-(2-chlorophenyl)piperazin-1-yl)pyrrolidin-3-ol] |

test system: not given; experiment: not given; conditions: not given

| melting point [°C] | SMILES |
| --- | --- |
| 102 to 103 | O[C@@H]1CN(Cc2ccccc2)C[C@H]1N1CCN(Cc2ccccc2)CC1 [Example 17, (3,4-trans)-1-benzyl-4-(4-benzylpiperazin-1-yl)pyrrolidine-3-ol] |
| 120 to 123 | O[C@@H]1CN(Cc2ccccc2)C[C@H]1N1CCN(c2ccccc2)CC1 [Example 18, (3,4-trans)-1-benzyl-4-(4-phenylpiperazin-1-yl)pyrrolidine-3-ol] |
| 130 to 134 | O=C(c1ccccc1)N1CCN([C@@H]2CN(Cc3ccccc3)C[C@H]2O)CC1 [Example 20, (4-((3,4-trans)-1-benzyl-4-hydroxypyrrolidine-3-yl)piperazin-1-yl)(phenyl)methanone] |
